Test system: GM3
Test: GM3 Elisa assay
Format: cell-based
Settings: Table 3 (IC 50 Values); B16-FO cells; read-out: IC50_uM_Mean
Outline: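 Cellular GM3 ELISA: fixed cells probed with monoclonal anti-GM3 (NeuAc), HRP-conjugated anti-IgM and fluorogenic Quantablu substrate, read at Ex 325/Em 420. Cells were B16-FO, treated 2 days after a 6 h attachment on collagen-coated wells.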

How did the IC50 turn out when `O=C(CCCOn1nnc2ccccc21)N[C@H](CN1CC[C@@H](F)C1)[C@H](O)c1ccc2c(c1)OCCO2` [Compound 651] was run?
Its IC50 is 1000 to 3000 nM.

`Cc1noc(CCCCC(=O)NC(CN2CCCC2)C(O)c2ccc3c(c2)OCCO3)n1` (stereo not shown) [Compound 652] was tested. Which IC50 did it give?
The IC50 was 3000 to 10000 nM.

`O=C(CCCCCC(=O)c1ccc(F)cc1)N[C@H](CN1CC[C@H](O)C1)[C@H](O)c1ccc2c(c1)OCCO2` [Compound 653] was tested. Which IC50 did it give?
The IC50 was at most 100 nM.

With `O=C(CCCCC(=O)c1ccc(F)cc1)N[C@H](CN1CC[C@H](O)C1)[C@H](O)c1ccc2c(c1)OCCO2` [Compound 654] as the molecule, how does the IC50 read?
The IC50 was 1000 to 3000 nM.

With `COc1ccc(C(=O)CCCCC(=O)N[C@H](CN2CC[C@H](O)C2)[C@H](O)c2ccc3c(c2)OCCO3)cc1` [Compound 655] as the molecule, how does the IC50 read?
Its IC50 is 100 to 1000 nM.

`O=C(CCCOc1ccc(F)cc1)N[C@H](CN1CC[C@H](O)C1)[C@H](O)c1ccc2c(c1)OCCO2` [Compound 656] was tested. Which IC50 did it give?
Its IC50 is at most 100 nM.

`CCCCOc1ccc([C@@H](O)[C@@H](CN2CC[C@H](O)C2)NC(=O)CCCCC(=O)c2ccc(F)cc2)cc1` [Compound 657] was tested. Which IC50 did it give?
The IC50 was 100 to 1000 nM.

`CCCCOc1ccc([C@@H](O)[C@@H](CN2CC[C@@H](F)C2)NC(=O)CCCCC(=O)c2ccc(F)cc2)cc1` [Compound 658] was tested. Which IC50 did it give?
The IC50 was 100 to 1000 nM.

For `CCCCOc1ccc([C@@H](O)[C@@H](CN2CC[C@@H](F)C2)NC(=O)CCCCCOCCF)cc1` [Compound 660], which IC50 is on record?
Its IC50 is 100 to 1000 nM.

With `CCCCOc1ccc([C@@H](O)[C@@H](CN2CC[C@H](O)C2)NC(=O)CCCCCOCCF)cc1` [Compound 661] as the molecule, how does the IC50 read?
The IC50 was 1000 to 3000 nM.

How did the IC50 turn out when `CCCCOc1ccc([C@@H](O)[C@@H](CN2CC[C@@H](F)C2)NC(=O)CCCCCOC2CCC2)cc1` [Compound 662] was run?
Its IC50 is 100 to 1000 nM.

How did the IC50 turn out when `CCCCC(=O)CCCCCCC(=O)N[C@H](CN1CCCC1)[C@H](O)c1ccc2c(c1)OCCO2` [Compound 663] was run?
Its IC50 is 100 to 1000 nM.

For `COc1ccc([C@@H](O)[C@@H](CN2CCCC2)NC(=O)CCCCCC(C)=O)cc1` [Compound 664], which IC50 is on record?
Its IC50 is 1000 to 3000 nM.

`CC(=O)CCCCCC(=O)N[C@H](CN1CCCC1)[C@H](O)c1ccc(OC(F)(F)F)cc1` [Compound 665] was tested. Which IC50 did it give?
Its IC50 is 3000 to 10000 nM.

For `COc1ccc(C(=O)CCCCCC(=O)N[C@H](CN2CCCC2)[C@H](O)c2ccc(OC(F)(F)F)cc2)cc1` [Compound 666], which IC50 is on record?
The IC50 was 100 to 1000 nM.

Which IC50 does the source give for `CCCCCCCC(=O)N[C@H](CN1CCCC1)[C@H](O)c1ccc(OC(F)(F)F)cc1` [Compound 667] here?
Its IC50 is 100 to 1000 nM.

`COc1ccc(C(=O)CCCCCC(=O)N[C@H](CN2CCCC2)[C@H](O)c2cc(OC)c(OC)c(OC)c2)cc1` [Compound 668] was tested. Which IC50 did it give?
The IC50 was 1000 to 3000 nM.

`CCCCCCCC(=O)N[C@H](CN1CCCC1)[C@H](O)c1cc(OC)c(OC)c(OC)c1` [Compound 669] was tested. Which IC50 did it give?
Its IC50 is 3000 to 10000 nM.

`O=C1CCC(=O)N1[C@H](CN1CCCC1)[C@H](O)c1ccc2c(c1)OCCO2` [Compound 670] was tested. Which IC50 did it give?
Its IC50 is 3000 to 10000 nM.

With `COc1cc([C@@H](O)[C@@H](CN2CCCC2)NC(=O)CCCCCC(C)=O)cc(OC)c1OC` [Compound 671] as the molecule, how does the IC50 read?
The IC50 was 3000 to 10000 nM.

For `CCCCCCCC(=O)N[C@@H](CN1CCCC1)[C@H](O)c1ccc2c(c1)OCCO2` [Compound 672], which IC50 is on record?
The IC50 was 3000 to 10000 nM.

How did the IC50 turn out when `CCCCCCCC(=O)N[C@H](CN1CCCC1)[C@@H](O)c1ccc2c(c1)OCCO2` [Compound 673] was run?
The IC50 was 3000 to 10000 nM.

Which IC50 does the source give for `COc1ccc(OCCC(=O)N[C@@H](CN2CCCC2)[C@@H](O)c2ccc3c(c2)OCCO3)cc1` [Compound 674] here?
Its IC50 is 3000 to 10000 nM.

`COc1ccc(OCCC(=O)N[C@@H](CN2CCCC2)[C@H](O)c2ccc3c(c2)OCCO3)cc1` [Compound 675] was tested. Which IC50 did it give?
The IC50 was 3000 to 10000 nM.

With `COc1ccc(OCCC(=O)N[C@H](CN2CCCC2)[C@@H](O)c2ccc3c(c2)OCCO3)cc1` [Compound 676] as the molecule, how does the IC50 read?
Its IC50 is 3000 to 10000 nM.

How did the IC50 turn out when `CCCCCCCC(=O)N[C@@H](CN1CCCC1)[C@@H](O)c1ccc2c(c1)OCCO2` [Compound 677] was run?
Its IC50 is 3000 to 10000 nM.

With `CCCCCCCCCCCCCCCC(=O)N[C@H](CNCc1ccccc1)[C@H](O)c1ccc2c(c1)OCCO2` [Compound 678] as the molecule, how does the IC50 read?
The IC50 was 3000 to 10000 nM.

With `CCCCCCCCCCCCCCCC(=O)N[C@H](CNCc1ccco1)[C@H](O)c1ccc2c(c1)OCCO2` [Compound 679] as the molecule, how does the IC50 read?
The IC50 was 3000 to 10000 nM.
